Assays:
[1] = test system: ER stressed superior cervical ganglia (SCG) sympathetic neurons; experiment: Survival of tunicamycin ER-stressed SCG neurons microinjected with expression plasmids; assay type: cell-based, mouse; conditions: expressed from microinjected plasmids; tunicamycin 2 μM; counted after three days
Procedure: (§1) Non-neuronal cells were removed by extensive preplating. Almost pure neurons were cultured in polyornithine/laminin (Sigma)-coated 35-mm plastic dishes in the small-size standard microislands in the Neurobasal medium and B27 supplement (Invitrogen/Gibco) in the presence of 30 ng/ml mouse nerve growth factor (NGF) (Promega) for 5-6 days. NGF was deprived by extensive washing and addition of the function-blocking anti-NGF antibodies (Roche). The neurons were pressure-microinjected with special neuronal microinjection equipment (Hellman et al., 2011; Hamner et al., 2001; Lindholm et al., 2002; Sun et al., 2001; Yu et al., 2003)(Sun et al., 2001; Sun et al., 2003). For the survival assay, all neurons on the microislands were counted in the beginning (initial number) and the end (three days) of the experiment and expressed as % of initial.
(§2) Microinjection of the sympathetic neurons was performed as described earlier (Yu, L. Y., Jokitalo, E., Sun, Y. F., Mehlen, P., Lindholm, D., Saarma, M., and Arumäe, U. (2003) J. Cell Biol. 163, 987-997). […] Next day tunicamycin (2 μM) was added, and after 3 days the living fluorescent neurons were counted. Living fluorescent (EGFP-expressing or Dextran Texas Red-containing) neurons were “blindly” counted three days later and expressed as percent of initial living fluorescent neurons counted 2-3 hours after microinjection. […]

[2] = test system: Huntington's disease rat model (quinolinic acid); experiment: Quinolinic acid Huntington's disease rat model, rotarod and grip strength; assay type: in vivo; conditions: single intrastriatal injection 2 weeks after QA, equimolar to CDNF 10 micrograms, vs QA+PBS
Source text: Adult Wistar rats received a single, unilateral intrastriatal injection of quinolinic acid (QA) 225 nmol into coordinates: A/P+0.7; L/M+2.8; D/V −6.0. Quinolinic acid is a toxin that induces striatal neuron death by an excitotoxic process. […] Rats were randomized to groups before the treatments started. Rotarod and grip strength tests were done weekly.

ER stressed SCG neurons = experiment: Survival of tunicamycin ER-stressed SCG neurons microinjected with recombinant protein; assay type: cell-based, mouse; conditions: recombinant protein microinjected into the cytoplasm; tunicamycin 2 μM; counted after 3 days
Procedure: as §1, §2

[3] = test system: rats in the 6-OHDA model of Parkinson's disease; conditions: applied before the toxin; cited from earlier work
E14 dopamine neurons = experiment: Internalization of iodinated proteins into dopamine neurons; assay type: cell-based, mouse; conditions: 30,000 cpm iodinated protein, 37° C., 2 hr, acid wash
Procedure: 2 hr. The cells were transferred to ice and washed once with 0.5 ml of the ice cold media. Then cells were transferred to Eppendorf tubes and washed at 4° C. once with 0.2M acetic acid, 0.5M NaCl, pH 2.8.

rat PC6 cells = experiment: Internalization of iodinated proteins into PC6.3 cells; assay type: cell-based; conditions: PC6 cells with or without thapsigargin, 90 min, acid wash
Procedure: Rat PC6.3 pheochromocytoma cells were grown on the 24 well plate in DMEM culture with 10% FCS and 5% horse serum. […] 90 min. The cells were put on ice, washed once with 0.5 ml of the ice cold media. Then cells were transferred to Eppendorf tubes and washed once with 0.2M acetic acid, 0.5M NaCl, pH 2.8. After centrifugation at 1000 g for 10 min cells were dissolved in 0.5 ml of 0.5 N NaOH and counted in Wizard 3 1480 Automatic Gamma Counter (Perkin Elmer, Wallac).

Molecule	living fluorescent neurons, percentage of initial neurons [1]	rotarod latency to fall (motor behavior) [2]	living fluorescent neurons, percentage of initial neurons (ER stressed SCG neurons)	6-OHDA-induced behavioral and histological symptoms [3]	radioactivity inside the cells (internalization) (E14 dopamine neurons)	radioactivity inside the cells (cell membrane penetration) (rat PC6 cells)
CDNF: cerebral dopamine neurotrophic factor; mature human CDNF, SEQ ID NO: 7, 161 amino acids	rescue ER stressed superior cervical ganglia (SCG) sympathetic neurons	not CDNF improved motor behavior statistically significantly	rescue ER stressed SCG neurons	potently prevent the 6-OHDA-induced behavioral and histological symptoms	–	–
^125I-CDNF: full length CDNF iodinated with 125I-Na using the lactoperoxidase method	–	–	–	–	not ^125I-CDNF is efficiently internalized	not full length iodinated CDNF penetrate cell membrane
MANF: mesencephalic astrocyte-derived neurotrophic factor; mature human MANF, SEQ ID NO: 9, 158 amino acids (protein, listed as Homo sapiens) LRPGDCEVCISYLGRFYQDLKDRDVTFSPATIENELIKFCREARGKENRLCYYIGATDDAATKIINEVSKPLAHHIPVEKICEKLKKKDSQICELKYDKQIDLSTVDLKKLRVKELKKILDDWGETCKGCAEKSDYIRKINELMPKYAPKAASARTDL	–	–	–	potently prevent the 6-OHDA-induced behavioral and histological symptoms	–	–

— US20260159561A1 (MyNeuroCure Oy, priority 2017, published 2026)
